The target in one test is T1, human STING WT (R232) (Homo sapiens, UniProt Q86WV6, H232R).
T1 construct: purchased Cisbio 64BDSTGPEG
The test can be described thus: Human STING HTRF binding assay (competitive, Cisbio 64BDSTGPEG). How it is done:
Binders to human STING WT (R232) were identified using a competitive HTRF assay format (Cisbio 64BDSTGPEG), which uses d2-labeled STING ligand, a 6His (SEQ ID NO: 2) tagged human STING protein, and an anti 6His (SEQ ID NO: 2) Cryptate-labeled antibody. Compounds compete with the STING ligand-d2 and thereby prevents FRET from occurring, which can be measured by an EnVision™ reader (PerkinElmer).
Assay method: Compounds were delivered as 10 mM DMSO solution, serially diluted by an Agilent Bravo Workstation and transferred to the 384 well assay plate (Perkin Elmer #6005359) using a Cybiwell dispenser. Typically, 8 concentrations were used with the highest concentration at 10 μM or 1 μM in the final assay volume followed by ~1:5 dilution steps. DMSO concentration was set to 1% in the final assay volume. The 384 well assay plate contained 20 test compounds and DMSO in column 23 and 24. A cGAMP standard dilution row was prepared according to the manufacturer and transferred to each assay plate. After transfer of compound solution or dilution buffer for negative (high) and positive (low) controls, 5 μl of the human STING protein (cyclic binding domain (residues 138-379) of the WT R232 human version, fused to a 6 His tag (SEQ ID NO: 2) at the Nter part; 1:50 dilution in detection buffer) were dispensed to all wells except of the positive control, which received detection buffer only. Plates were the centrifuged for 20 sec at 1000 rpm. After that, 10 μl of Anti-6His-Cryptate antibody/Sting ligand-d2 mix was added to all wells using a Multidrop combi dispenser, followed by another sec/1000 rpm centrifugation step. After an incubation of the plates for 180 min at room temperature, […] at […] (HTRF ratio) was measured using an Envison Reader (PerkinElmer).
Data evaluation and calculation: For data evaluation and calculation, HTRF ratios were calibrated using the cGAMP standard curve. After that, the measurement of the low control was set as 0% control and the measurement of the high control was set as 100% control. The IC50 values were calculated using the standard 4 parameter logistic regression formula. Calculation: [y=(a−d)/(1+(x/c)^b)+d], a=low value, d=high value; x=conc M; c=IC50 M; b=slope;
Background: In TR-FRET formats the signal depends on donor and acceptor labels being close together.

In test [1] the test system is STING inhibition in human whole blood (IFNα2α production). The test can be described thus: Human whole blood assay (HWBA): cGAMP-stimulated IFNα2α production. It counts as cell-based. The conditions noted are these: Homo sapiens. How it is done:
For the detection of STING inhibition in physiological environment human whole blood was stimulated by the cyclic dinucleotide cGAMP. Pathway activity was monitored by measuring the IFNα2α production.
Assay method: Compounds were delivered as 10 mM DMSO solution and serial diluted and transferred to the 96-well Cell culture Plate (Corning #3595), prefilled with 20 μl OptiMEM (Gibco #11058-021) in each well, using an Echo acoustic dispenser. Typically, 8 concentrations were used with the highest concentration at 10 μM in the final assay volume followed by ~1:5 dilution steps. DMSO concentration was set to 0.1% in the final assay volume. The 96 well assay plate contained 9 test compounds, a reference compound and DMSO in control wells.
Collection of human whole blood from 3 or more healthy donors (male or female, no medication for 7 days, exception contraceptive and thyroxine) as Na-citrate blood (e.g. 3.8% in Monovettes from Sarstedt) is conducted in parallel. Whole blood was kept at room temperature for a maximum of 3 hours after collection until use in the assay.
160 μl of the whole blood samples were transferred to each well of the 96-well assay plates filled with compound/OptiMEM. All assay plates are prepared as duplicates with blood from different donors. Blood plates were kept at room temperature for 60 minutes and continuous shaking with 450 rpm, covered with the lid, but not sealed.
A 10× cGAMP assay solution was diluted from a 2 mM stock solution in 1×HBSS immediately before use at room temperature. 20 μl of the 10× cGAMP/HBSS were added to all compound and all high control wells, whereas HBSS only was added to all low control wells.
After covering assay plates with aera seals and the lid, blood plates were kept at room temperature for 30 minutes and continuous shaking with 450 rpm, followed by an overnight incubation of 22 h at 37° C. in the incubator, without shaking.
For the detection of IFNα-2α in human plasma, the biotinylated capture antibody (Antibody set IFNA2, Meso Scale Diagnostics #B21VH-3, including coating and capture antibody) was diluted 1:17.5 in Diluent 100 (Meso Scale Diagnostics #R50AA-4, according to the manufacturer. U-Plex MSD GOLD 96-well Small Spot Streptavidin SECTOR Plates (Meso Scale Diagnostics #L45SA-5) were coated with 25 μl diluted capture antibody. Coated plates were incubated for 60 min at room temperature under continuous shaking at 700 rpm. MSD IFNα-2α plates were washed three times with 150 μl wash buffer (1×HBSS, 0.05% Tween).
After blocking the plates with 100 μl block solution/well (1×HBSS with 0.2% Tween, 2% BSA) for 60 min at room temperature and continuous shaking at 700 rpm, plates were emptied as dry as possible by dumping just before continuing with the human plasma. Whole Blood assay plates were centrifuged at 1600 rpm for 10 minutes. 25 μl of supernatant was transferred with a pipetting robotics from each whole blood plate to the corresponding IFNα-2α plate. Plates were sealed with microplate seals and kept at room temperature again under continuous shaking at 700 rpm for two hours. Next MSD IFNα-2α plates were washed three times with 150 μl wash buffer (1×HBSS, 0.05% Tween), before adding 25 μl MSD SULFO-TAG IFNα-2α Antibody solution (1:100 diluted in Diluent 3 (Meso Scale Diagnostics #R50AP-2) to each well of the plates. Afterwards plates were sealed with microplate seals and kept at room temperature again under continuous shaking at 700 rpm for two hours. Finally MSD IFNα-2α plates were washed three times with 150 μl wash buffer (1×HBSS, 0.05% Tween). 150 μl 2×Read buffer was added to each well and plates were immediately measured with the MSD Sector S600 Reader using the vendor barcode.
Data evaluation and calculation: For data evaluation and calculation, % control calculation of each well was based on the mean of high (cGAMP stimulated control) and mean of low (unstimulated control) controls by using the following formula: […]

T1 sequence (Q86WV6 138-379 H232R): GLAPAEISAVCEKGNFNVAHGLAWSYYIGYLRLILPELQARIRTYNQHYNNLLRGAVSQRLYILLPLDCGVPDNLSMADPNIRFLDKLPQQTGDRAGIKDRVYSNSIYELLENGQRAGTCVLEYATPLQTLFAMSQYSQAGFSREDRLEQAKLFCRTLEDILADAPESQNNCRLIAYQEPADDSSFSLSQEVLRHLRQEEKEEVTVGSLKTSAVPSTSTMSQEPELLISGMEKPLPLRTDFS

By IC50 is commonly meant the concentration that inhibits the measured activity by half. High values mean a need for much substance, low ones inhibition by little substance. Take `CC(C)c1nc2nn(C)cc2cc1-c1nc(-c2cccc3nn(C[C@H](O)c4ccccc4)cc23)c(C2CC2)n1C` [Example 97, (1R)-2-(4-{5-Cyclopropyl-1-methyl-2-[2-methyl-6-(propan-2-yl)-2H-pyrazolo[3,4-b]pyridin-5-yl]-1H-imidazol-4-yl}-2H-indazol-2-yl)-1-phenylethan-1-ol]: the values for the IC50 (at human STING WT (R232); in test [1]) were 3.4 nM and 52 nM, respectively.

In the case of `COCc1nc2nn(C)cc2cc1-n1nc(-c2cccc3nn(C[C@H](O)c4ccccc4)cc23)c(C(C)C)c1C` [Example 17, (1R)-2-(4-{1-[6-(methoxymethyl)-2-methyl-2H-pyrazolo[3,4-b]pyridin-5-yl]-5-methyl-4-(propan-2-yl)-1H-pyrazol-3-yl}-2H-indazol-2-yl)-1-phenylethan-1-ol], the IC50 on human STING WT (R232) turned out to be 1.4 nM; in test [1] it was 81 nM.

On to `Cc1c(C(C)C)c(-c2cccc3nn(C[C@H](O)c4ccccc4)cc23)nn1-c1cc2cn(C)nc2nc1CN(C)C` [Example 112], for which the figures for the IC50 (at human STING WT (R232); in test [1]) were 31.7 nM and 170 nM, respectively.

As for `Cc1nc2nn(C)cc2cc1-n1nc(-c2cccc3nn(C[C@H](OCC(N)=O)c4ccccc4)cc23)c(C(C)C)c1C` [Example 108, 2-[(1R) -2-[4-(1-{2,6-dimethyl-2H-pyrazolo[3,4-b]pyridin-5-yl}-5-methyl-4-(propan-2-yl)-1H-pyrazol-3-yl)-2H-indazol-2-yl]-1-phenylethoxy]acetamide], the IC50 on human STING WT (R232) was 5.8 nM; in test [1] it was 38 nM.

On to `CCn1cc2cc(-n3nc(-c4cccc5nn(C[C@H](O)c6ccccc6)cc45)c(C(C)C)c3C)c(C)nc2n1` [Example 100, (1R)-2-[4-(1-{2-ethyl-6-methyl-2H-pyrazolo[3,4-b]pyridin-5-yl}-5-methyl-4-(propan-2-yl)-1H-pyrazol-3-yl)-2H-indazol-2-yl]-1-phenylethan-1-ol], for which the values for the half-maximal inhibitory concentration (IC50) (at human STING WT (R232); in test [1]) were 6.9 nM and 37 nM, respectively.

On to `Cc1nc2nn(CCCN3CCN(C)CC3)cc2cc1-n1nc(-c2cccc3nn(C[C@H](O)c4ccccc4)cc23)c(C(C)C)c1C` [Example 7, (1R)-2-[4-(5-methyl-1-{6-methyl-2-[3-(4-methylpiperazin-1-yl)propyl]-2H-pyrazolo[3,4-b]pyridin-5-yl}-4-(propan-2-yl)-1H-pyrazol-3-yl)-2H-indazol-2-yl]-1-phenylethan-1-ol], for which the IC50 stood at 24.6 nM at human STING WT (R232) and 61 nM in test [1].

For `Cc1nc2nn(CCCN3CCC(F)(F)C3)cc2cc1-n1nc(-c2cccc3nn(C[C@H](O)c4ccccc4)cc23)c(C(C)C)c1C` [Example 40, (1R)-2-[4-(1-{2-[3-(3,3-difluoropyrrolidin-1-yl)propyl]-6-methyl-2H-pyrazolo[3,4-b]pyridin-5-yl}-5-methyl-4-(propan-2-yl)-1H-pyrazol-3-yl)-2H-indazol-2-yl]-1-phenylethan-1-ol], the results for the IC50 (at human STING WT (R232); in test [1]) were 28.4 nM and 140 nM, respectively.

For `Cc1nc2nn(Cc3cnn(C)c3)cc2cc1-n1nc(-c2cccc3nn(C[C@H](O)c4ccccc4)cc23)c(C(C)C)c1C` [Example 24, (1R)-2-[4-(5-methyl-1-{6-methyl-2-[(1-methyl-1H-pyrazol-4-yl)methyl]-2H-pyrazolo[3,4-b]pyridin-5-yl}-4-(propan-2-yl)-1H-pyrazol-3-yl)-2H-indazol-2-yl]-1-phenylethan-1-ol], the IC50 at human STING WT (R232) is 4.9 nM; in test [1], 92 nM.

With `CC(C)c1nc2nn(C)cc2cc1-c1nc(-c2cccc3nn(CS(=O)(=O)c4ccccc4)cc23)c(C2CC2)n1C` [Example 96, 2-[(Benzenesulfonyl)methyl]-4-{5-cyclopropyl-1-methyl-2-[2-methyl-6-(propan-2-yl)-2H-pyrazolo[3,4-b]pyridin-5-yl]-1H-imidazol-4-yl}-2H-indazole], the figures for the IC50 (on human STING WT (R232); in test [1]) were 34 nM and 2900 nM, respectively.

For `Cc1nc2nn(C(C)C)cc2cc1-n1nc(-c2cccc3nn(C[C@H](O)c4ccccc4)cc23)c(C(C)C)c1C` [Example 18, (1R)-2-(4-{5-methyl-1-[6-methyl-2-(propan-2-yl)-2H-pyrazolo[3,4-b]pyridin-5-yl]-4-(propan-2-yl)-1H-pyrazol-3-yl}-2H-indazol-2-yl)-1-phenylethan-1-ol], the IC50 was 14.6 nM on human STING WT (R232) and 81 nM in test [1].

With `Cc1c(C(C)C)c(-c2cccc3nn(C[C@H](O)c4ccc(OCCN5CCOCC5)cc4)cc23)nn1-c1cc2cn(C)nc2nc1C1CC1` [Example 15, (1R)-2-[4-(1-{6-cyclopropyl-2-methyl-2H-pyrazolo[3,4-b]pyridin-5-yl}-5-methyl-4-(propan-2-yl)-1H-pyrazol-3-yl)-2H-indazol-2-yl]-1-{4-[2-(morpholin-4-yl)ethoxy]phenyl}ethan-1-ol], the results for the half-maximal inhibitory concentration (IC50) (at human STING WT (R232); in test [1]) were 19.1 nM and 77 nM, respectively.

Consider `Cc1c(C(C)C)c(-c2cccc3nn(C[C@H](O)c4ccccc4)cc23)nn1-c1cc2cn(C)nc2nc1C1CCOC1` (stereo partly drawn) [Example 47, (1R)-2-(4-{5-methyl-1-[2-methyl-6-(oxolan-3-yl)-2H-pyrazolo[3,4-b]pyridin-5-yl]-4-(propan-2-yl)-1H-pyrazol-3-yl}-2H-indazol-2-yl)-1-phenylethan-1-ol], for which the IC50 on human STING WT (R232) is 11.9 nM; in test [1] it was 150 nM.

`CNC(=O)CO[C@@H](Cn1cc2c(-c3nn(-c4cc5cn(C)nc5nc4C)c(C)c3C(C)C)cccc2n1)c1ccccc1` [Example 36, 2-[(1R)-2-[4-(1-{2,6-dimethyl-2H-pyrazolo[3,4-b]pyridin-5-yl)-5-methyl-4-(propan-2-yl)-1H-pyrazol-3-yl)-2H-indazol-2-yl]-1-phenylethoxy]-N-methylacetamide]: the IC50 at human STING WT (R232) turned out to be 14.6 nM; in test [1], 130 nM.

Consider `CCO[C@@H](Cn1cc2c(-c3nn(-c4cc5cn(C)nc5nc4C)c(C)c3C(C)C)cccc2n1)c1ccccc1` [Example 30, 4-(1-{2,6-dimethyl-2H-pyrazolo[3,4-b]pyridin-5-yl}-5-methyl-4-(propan-2-yl)-1H-pyrazol-3-yl)-2-[(2R)-2-ethoxy-2-phenylethyl]-2H-indazole], for which the values for the IC50 (on human STING WT (R232); in test [1]) were 18.2 nM and 110 nM, respectively.

The values above are taken from US20260265244A1, “HETEROCYCLIC COMPOUNDS AS STING ANTAGONISTS” (Boehringer Ingelheim International GmbH, priority 2022, published 2026).
